Like-named read-outs stand apart in the source and are kept apart here. A value given as a limit tells only on which side of the number the result lay.

The test system of series [1] is hepatitis virus C (HCV) genotype 1a. Kind of series: HCV subgenomic replicon assay (RHEPTAQ), genotype 1a. It is filed as cell-based. To be noted: Hepatitis C virus, Table 4, genotype 1a; read-out: Replicon: EC50 (1a). The source says: (§1) Table 3 and Table 4 summarize the measured activities of these prodrugs as assessed in a subgenomic replicon assay (RHEPTAQ), against genotypes 1a, 1b and 2a.

A short description of a further series: Tox: EdU/CellCount CC50. Type of series: cell-based.
Series [2] concerns hepatitis virus C (HCV) genotype 1b. Kind of series: HCV subgenomic replicon assay (RHEPTAQ), genotype 1b. Type of series: cell-based. To be noted: Hepatitis C virus, Table 4, genotype 1b; read-out: Replicon: EC50 (1b).
From the text: as §1

Series [3] deals with hepatitis virus C (HCV) genotype 1c. Kind of series: HCV replicon, genotype printed as 1c. It is filed as cell-based. To be noted: read-out: Replicon: EC50 (1c).
Series [4] relates to hepatitis virus C (HCV) genotype 2a. The series is described as follows: HCV subgenomic replicon assay (RHEPTAQ), genotype 2a. Type of series: cell-based. The note with it: Hepatitis C virus, Table 4, genotype 2a; read-out: Replicon: EC50 (2a).
From the text: as §1

The subject of series [5] is peripheral blood mononuclear cells (PBMCs). To be noted: pbmc; cited from earlier work.
The subject of the next series is HCV GT1b. The note with it: Cho et al. 2012, Table 1; cited from earlier work.
A further series deals with HIV-1. The note with it: HIV-1, PBMCs; cited from earlier work.
Where [6] appears, read: CellCount readout, read-out: Tox: CellCount CC50.
The mark [7] stands for this setting: EdU readout, read-out: Tox: EdU CC50.

On to `C[C@@]1(F)[C@@H]2OP(=O)(OC3CSSC[C@@H]3OCc3ccccc3)OCC2O[C@H]1n1ccc(=O)[nH]c1=O` (some centres unmarked), for which the EC50 came out at 92 nM in series [1], 107 nM in series [2] and 101 nM in series [3]. Further, the figures for the CC50 in the series “Tox: EdU/CellCount CC50” (setting [6]) and in the series “Tox: EdU/CellCount CC50” (setting [7]) were 85000 nM and 30000 nM, respectively.

`C[C@@]1(O)[C@@H]2OP(=O)(OC3CSSC[C@@H]3OCc3ccccc3)OCC2O[C@H]1n1ccc(=O)[nH]c1=O` (single isomer, unassigned) [drawing 112]: the figures for the EC50 in series [1], in series [4] and in series [2] were 70 nM, 90 nM and 110 nM, respectively. For the same compound, the CC50 in “Tox: EdU/CellCount CC50” (setting [6]) came out at 8500 nM; in the series “Tox: EdU/CellCount CC50” (setting [7]), 4100 nM.

On to `CC(Cn1cnc2c(N)ncnc21)OCP(=O)(O)OP(=O)(O)OP(=O)(O)O` (stereo in doubt) [tenofovir diphosphate], for which the “half-life in peripheral blood mononuclear cells (PBMCs)” value in series [5] is greater than 100 h.

In the case of `C[C@@]1(O)[C@H](O)[C@@H](CO)O[C@H]1n1ccc(=O)[nH]c1=O` [2′-C-Me-U, 2′-C-methyl-uridine], in the series with HCV GT1b, the EC50 is 15200 nM.

On to `C[C@H](Cn1cnc2c(N)ncnc21)OCP(=O)(O)O` [tenofovir], for which, in the series on HIV-1, the EC50 is 1200 nM.

As to `C[C@@]1(O)[C@H](O)[C@@H](COP(=O)(O)OP(=O)(O)OP(=O)(O)O)O[C@H]1n1ccc(=O)[nH]c1=O` [triphosphate 2′-C-Me-U], the EC50 in the series on HCV GT1b is 1320 nM.
